The values below come from US20140377219A1, “HIV INHIBITORS” (New york Blood Center, Inc., priority 2011, published 2014).

One data set relates to PBMC. The experiment in a line: Cytotoxicity in PBMC (XTT). The data set is classed as cell-based. The protocol: Cytotoxicity of small molecules in MT-2 cells and PBMC was measured by the XTT ((sodium 3′-(1-(phenylamino)-carbonyl)-3,4-tetrazolium-bis(4-methoxy-6-nitro)benzene-sulfonic acid hydrate)) method. Briefly, for MT-2 cells, 100 μl of a small molecule at graded concentrations was added to an equal volume of cells (10^5 cells/ml) in 96-well plates followed by incubation at 37° C. for four days, which ran parallel with the neutralization assay in MT-2 (except medium was added instead of virus). In the case of PBMC, 5×10^5 cells/ml was used and the cytotoxicity was measured after seven days. […] The percentage cytotoxicity and the CC50 values were calculated as described above.

Data set [1] relates to Panel C env Du156, clone 12 (SVPC3). It counts as cell-based. The settings on record: TZM-bl, read-out: IC50 (μM) ± S.D., antiviral activity against HIV-1 envelope pseudoviruses.
The test system of data set [2] is Panel C env Du172, clone 17 (SVPC4). The data set is classed as cell-based. The following applies: TZM-bl, read-out: IC50 (μM) ± S.D., antiviral activity against HIV-1 envelope pseudoviruses.
Data set [3] has as its system Panel C env Du422, clone 1 (SVPC5). It counts as cell-based. The settings on record: TZM-bl, read-out: IC50 (μM) ± S.D., antiviral activity against HIV-1 envelope pseudoviruses.
Data set [4] concerns Panel C env ZM-197M.PB7, SVPC6. The data set is classed as cell-based. The following applies: TZM-bl, read-out: IC50 (μM) ± S.D., antiviral activity against HIV-1 envelope pseudoviruses.
For data set [5], the system named is Panel C env ZM-214M.PL15, SVPC7. It counts as cell-based. The settings on record: TZM-bl, read-out: IC50 (μM) ± S.D., antiviral activity against HIV-1 envelope pseudoviruses.
Data set [6] deals with Panel C env ZM-233M.PB6, SVPC9. It counts as cell-based. The settings on record: TZM-bl, read-out: IC50 (μM) ± S.D., antiviral activity against HIV-1 envelope pseudoviruses.
Data set [7] has as its system Panel C env ZM-53M.PB12, SVPC11. It counts as cell-based. The settings on record: TZM-bl, read-out: IC50 (μM) ± S.D., antiviral activity against HIV-1 envelope pseudoviruses.
Data set [8] deals with Panel B env SC422661, clone B (SVPB8). The data set is classed as cell-based. The settings on record: TZM-bl, read-out: IC50 (μM) ± S.D., antiviral activity against HIV-1 envelope pseudoviruses.
The next data set concerns the target gp120-CD4 interaction (Human immunodeficiency virus type 1 group M subtype B, UniProt P03375). The data set is classed as binding. The settings on record: FIG. 7.
For data set [9], the system named is primary HIV-1 isolate 92US657 (subtype B, R5). The experiment in a line: Neutralization assay in PBMC (p24 ELISA). The following applies: read-out: IC50 (μM) ± S.D., inhibitory activity on infection; 92US657, subtype B, PBMC, R5, primary isolate. (In general: In an ELISA, binding on a coated surface is turned into a signal by an enzyme label.)
Method: PBMCs were isolated from the blood of healthy donors at the New York Blood Center by standard density-gradient centrifugation using Histopaque-1077 (Sigma-Aldrich). The cells were cultured at 37° C. for 2 h. Non-adherent cells were collected and resuspended at 5×10^6 cells/ml in RPMI-1640 medium containing 10% (v/v) fetal bovine serum, 5 μg/ml of phytohemagglutinin, and 100 U/ml of IL-2 (Sigma-Aldrich), followed by incubation at 37° C. for three days.
The test system of data set [10] is primary HIV-1 isolate 93TH060 (subtype E, R5). The experiment in a line: Neutralization assay in PBMC (p24 ELISA). The following applies: read-out: IC50 (μM) ± S.D., inhibitory activity on infection; 93TH060, subtype E, PBMC, R5, primary isolate.
Method: (§2) The inhibitory activity of small molecules on infection by primary HIV-1 isolates was determined. PBMCs were isolated from the blood of healthy donors at the New York Blood Center by standard density-gradient centrifugation using Histopaque-1077 (Sigma-Aldrich). The cells were cultured at 37° C. for 2 h. Non-adherent cells were collected and resuspended at 5×10^6 cells/ml in RPMI-1640 medium containing 10% (v/v) fetal bovine serum, 5 μg/ml of phytohemagglutinin, and 100 U/ml of IL-2 (Sigma-Aldrich), followed by incubation at 37° C. for three days.
Data set [11] relates to primary HIV-1 isolate BCF02 (Group 0, R5). The experiment in a line: Neutralization assay in PBMC (p24 ELISA). The settings on record: read-out: IC50 (μM) ± S.D., inhibitory activity on infection; BCF02, Group 0, PBMC, R5, primary isolate.
Method: as §2
For another data set, the system named is HIV-1 MN. The experiment in a line: Multi-cycle neutralization assay in MT-2 cells. The settings on record: read-out: IC50 (μM) ± S.D., inhibitory activity on infection; MN, subtype B, MT-2, X4, laboratory strain.
The test system of the next data set is HIV-1 RF. The experiment in a line: Multi-cycle neutralization assay in MT-2 cells. The settings on record: read-out: IC50 (μM) ± S.D., inhibitory activity on infection; RF, subtype B, MT-2, R5X4, laboratory strain.
The next data set addresses T1, HIV-1IIIB gp120 and sCD4 (Human immunodeficiency virus type 1 group M subtype B, UniProt P03375).
T1 construct: recombinant gp120 from HIV-1IIIB and HIV-1MN
The experiment in a line: biochemical. It counts as binding. The following applies: captured ELISA, sCD4 0.25 μg/ml; read-out: IC50 (μM ± SD), interaction HIV-1IIIB gp120 and sCD4. As for the experimental part: (§1) The compounds were incubated at graded concentrations with sCD4 (0.25 μg/ml) in the wells of polystyrene plates containing recombinant gp120, which was captured by coating the plates with a sheep anti-gp120 antibody D7324.

Another data set addresses T2, HIV-1MN gp120 and sCD4 (Human immunodeficiency virus type 1 group M subtype B, UniProt P05877).
T2 construct: recombinant gp120 from HIV-1IIIB and HIV-1MN
The experiment in a line: biochemical. It counts as binding. The settings on record: captured ELISA, sCD4 0.25 μg/ml; read-out: IC50 (μM ± SD), interaction HIV-1MN gp120 and sCD4. As for the experimental part:
as §1

Data set [12] deals with CD4-dependent virus (ADA). It counts as cell-based. The following applies: ADA in Cf2Th-CD4+-CCR5+ target cells, FIG. 5; read-out: IC50, inhibition of the CD4-dependent virus.
The target of another data set is gp120 (Human immunodeficiency virus type 1 group M subtype B, UniProt P03375). The experiment in a line: biochemical. It counts as binding, HIV-1. The following applies: SPR, ligand gp120.
Another data set addresses CD4 (Homo sapiens, UniProt P01730). The experiment in a line: Surface plasmon resonance (SPR), ligand CD4. The data set is classed as binding. The following applies: SPR. (In general: SPR reads the build-up and loss of mass on a sensor chip optically.)
Where [13] appears, read: PBMC, XTT, seven days, read-out: PBMC CC50.

Where two headings read alike, the source gives them in different places.

Method for HIV-1 MN: In brief, 1×10^4 MT-2 cells were infected with HIV-1 at 100 TCID50 (50% tissue culture infective dose) (0.01MOI) in 200 μl medium in the presence or absence of small molecules at graded concentrations and incubated overnight. The culture supernatants were then removed and replaced with fresh media. On the fourth day post-infection, 100 μl of culture supernatants were collected from each well, mixed with equal volume of 5% Triton X-100 and tested for p24 antigen by sandwich-ELISA. The percent inhibition of p24 production and IC50 values were calculated by the GraphPad Prism software (GraphPad Software Inc.).

What is called CC50 is the concentration at which the toxic effect on the cells reaches its halfway point. One may read the IC50 as the point on the concentration scale where inhibition reaches its midpoint. In the data set on PBMC, `Cc1nc(C(NC(=O)C(=O)Nc2ccc(Cl)cc2)C2CCCCN2)sc1CO.Cl` (stereo not drawn) [Compound 6, N^1-(4-chlorophenyl)-N^2-((5-(hydroxymethyl)-4-methylthiazol-2-yl)(piperidin-2-yl)methyl)oxalamide.HCl] returned a CC50 of over 160 µM. In addition, the IC50 is 4.6 ± 0.13 µM in data set [1]; 3 ± 0.38 µM in data set [2]; 15.9 ± 0.4 µM in data set [3]; over 21 µM in data set [4]; over 21 µM in data set [5]; 5.6 ± 1.3 µM in data set [6]. Moreover, the IC50 in data set [7] was 2.4 ± 0.2 µM; in data set [8] it was 2.3 ± 0.2 µM; in data set [9] it was 8.6 ± 0.9 µM; in data set [10], 7.2 ± 0.6 µM; in [11], about 87 µM; with HIV-1 MN it was 4 ± 0.9 µM. Also, the concentration for half-maximal inhibition (IC50) in the data set on HIV-1 RF was 9.6 ± 0.8 µM. The “inhibition of the gp120-CD4 interaction” value on gp120-CD4 interaction is listed as “inhibit gp120-CD4 interaction in a dose dependent manner”.

For `Cc1ccc(NC(=O)C(=O)NC(c2nc(C)c(CO)s2)C2CCCCN2)cc1F.Cl` (stereo not drawn) [Compound 28, N^1-(3-fluoro-4-methylphenyl)-N^2-((5-(hydroxymethyl)-4-methylthiazol-2-yl)(piperidin-2-yl)methyl)oxalamide.HCl], the CC50 in the data set on PBMC (setting [13]) is about 106 µM. Further, the IC50 in data set [3] was over 42 µM; in data set [4] it was over 42 µM; in data set [5], over 42 µM; in [7], over 42 µM; in [8], 2.5 ± 0.3 µM; in data set [9], 12.3 ± 1.3 µM. Further, the IC50 was 9.9 ± 1.8 µM in data set [10], over 85 µM in [11], 24.6 ± 4.6 µM with HIV-1 MN and 11 ± 0.6 µM in the data set on HIV-1 RF.

For `Cc1nc(C(NC(=O)C(=O)Nc2ccc(Cl)c(F)c2)C2CCCCN2)sc1CCO.Cl` (stereo not drawn) [Compound 39, N^1-(4-chloro-3-fluorophenyl)-N^2-((5-(2-hydroxyethyl)-4-methylthiazol-2-yl)(piperidin-2-yl)methyl)oxalamide.HCl], the “% toxicity at that dose (number in parenthesis), PBMC” value in the data set with PBMC was “(20%)”. The CC50 in the data set on PBMC was over 81 µM. Moreover, the IC50 stood at 1.7 ± 0.2 µM in data set [1]; 5.3 ± 0.2 µM in [2]; 2.5 ± 0.1 µM in data set [3]; 2.3 ± 0.2 µM in data set [4]; 2.9 ± 0.4 µM in [5]; 2.5 ± 0.5 µM in data set [6]. The concentration for half-maximal inhibition (IC50) was 1.3 ± 0.1 µM in data set [8]; 7.1 ± 0.9 µM in data set [9]; 13.7 ± 0.9 µM in [10]; 65.1 ± 3.5 µM in [11]; 16.7 ± 1.5 µM in the data set with HIV-1 MN; 11.8 ± 1.2 µM in the data set on HIV-1 RF.

As for `CC1(C)CC(NC(=O)C(=O)Nc2ccc(Cl)cc2)CC(C)(C)N1` [NBD-556, reference compound], the CC50 with PBMC (setting [13]) is 961 µM. In addition, the IC50 in data set [2] was 4.2 ± 0.23 µM; in [3], 11.8 ± 2.9 µM; in [4], 7.9 ± 0.9 µM; in data set [5], 6.5 ± 1.3 µM; in [6], 4.9 ± 1.13 µM; in data set [7], 13.4 ± 0.06 µM. In addition, the IC50 at HIV-1IIIB gp120 and sCD4 was 2.11 µM; at HIV-1MN gp120 and sCD4 it was 5.66 ± 0.8 µM; in [12] it was 22.6 µM; in [9], 48 ± 1.65 µM; in [10] it was over 45 µM; with HIV-1 MN, 15.9 ± 1.6 µM. Also, in the data set on HIV-1 RF, the IC50 was 18.7 ± 1.3 µM. Further, the “inhibition of the gp120-CD4 interaction” value against gp120-CD4 interaction was “in a dose dependent manner”. Moreover, the “Rmax (RU)” value at gp120 amounted to 6.99 RU. Besides, the “binding to CD4” value on CD4 was “not to CD4”.
